According to PubChem BioAssay AID2060349 (Molecular Pharmacology Branch, DTP, NCI, 2025):
“And” between values parts separate entries of the source, which are not always exact repeats. Identical values can stand only once.

System: 762968-020-R-J2-PDC spheroids viability
Test: Anticancer human tumor 762968-020-R-J2-PDC patient-derived colon carcinoma cell line growth inhibition [TAK]
Conditions: spheroids with HUVEC and MSC; for viability, T/C: stronger effect = lower value
Text: Combinatorial screen of targeted agents with TAK-243 and ipatasertib in multi-cell type tumor spheroids
A high-throughput screen of multi-cell type tumor spheroids was designed to identify active combinations of targeted small molecules and TAK-243 or ipatasertib. Complex spheroids include a stromal component modeled by human endothelial cells (HUVEC) and fibroblasts modeled by human mesenchymal stem cells (MSCs). The concentration ranges selected for each drug and investigational agent were based upon clinically achievable concentrations if the clinical Cmax of the agent was known.
Compounds. The drugs and investigational agents: TAK-243 (785004), ipatasertib (767898), everolimus (733504), selumetinib (741078), bortezomib (756655), trametinib (758246), ixazomib (758254), vemurafenib (761431), dabrafenib (764134), sapanisertib (764658), alpelisib (765974), and copanlisib (816437), were obtained from the National Cancer Institute (NCI) Developmental Therapeutics Program Chemical Repository. The FDA-approved anticancer drug set is available from the NCI Developmental Therapeutics Program. […] The stock solutions were prepared in dimethyl sulfoxide (DMSO, Sigma-Aldrich, St. Louis, MO, cat. D2650) at 800-fold the tested concentration and stored at -70 degrees C prior to their use. All drugs and investigational agents were tested over a range starting from a high concentration at or near the clinical Cmax and decreasing in half-log increments. If the clinical Cmax for an agent had not been determined, the highest concentration tested was 10 microM.
NCI60 Cell Culture. NCI60 cell lines were obtained from the NCI Developmental Therapeutics Program Tumor Repository. For each lot of cells, the Repository performed Applied Biosystems AmpFLSTR Identifiler testing with PCR amplification to confirm consistency with the published Identifier STR profile for each cell line. Cells were kept in continuous culture for no more than 20 passages. The optimal seeding densities for each of the cell lines at each time point assessed were determined prior to performing the concentration response studies. Briefly, the NCI60 human tumor lines were grown as monolayers in RPMI 1640 medium supplemented with 10% FBS and 2 mmol/L L-glutamine.
An additional 2 lines were from the NCI60 cell line panel including melanomas, MALME-3M and SK-MEL-2. Pooled donor human umbilical vein endothelial cells (HUVEC, Lonza, cat. CC-2519) and human mesenchymal stem cells (hMSC, Lonza, cat. PT-2501) were purchased from Lonza (Walkersville, MD).
PDMR cell lines were grown in complete medium (DC medium): Dulbecco's modified Eagle's medium (DMEM)/F12 supplemented with 5% fetal bovine serum (FBS), 2 mM L-glutamine, 100 U/mL penicillin and 100 µg/ml streptomycin, 0.4 µg/ml hydrocortisone, 10 ng/ml epidermal growth factor (EGF) recombinant human protein, 24 µg/mL adenine, and 0.1 mg/mL primocin. During culture from frozen stock vials, PDMR cells were cultured in the same medium containing 10 µM Y-27632 (see Table 3). The PDCs were cultured in complete DMEM/F12 media without 10 microM Y-27632 dihydrochloride for at least two passages prior to the screen. The pooled donor HUVEC and hMSC were cultured in endothelial cell growth medium 2 (PromoCell, Heidelberg, Germany, cat. C-22011) and mesenchymal stem cell growth medium 2 (PromoCell, cat. C-28009), respectively. For all experiments, HUVEC and hMSC were used at passages </=5.
For the pre-screen, cell seeding densities were determined from a titration spanning the range from 5,000 to 313 cells per well. The mct-spheroids including 60% malignant cells, 25% HUVEC and 15% MSC dispensed as a mixture into U-bottom Ultra-Low Attachment 384-well plates (Corning, NY)
High-throughput Drug Combination Screening.
Prior to their inoculation into 384-well plates, malignant cells, HUVEC, and hMSC were removed from T flasks using TrypLE express (Thermo Fisher Scientific, cat. 12605036) and harvested by centrifugation for 5 min at 233 x g. […]
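Note: spheroids exposed to drug for 7 days before readout.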
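Throughout, for viability, T/C: 100% = DMSO vehicle control wells.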

| SMILES | viability, T/C (compound 0.3 µM) | viability, T/C (compound 0.949 µM) | viability, T/C (compound 3 µM) | viability, T/C (compound 9.49 µM) | IC50 (compound alone, run of 02/28/2020) [µM] | IC50 (compound alone, run of 03/19/2020) [µM] | viability, T/C (compound 0.000316 µM) | viability, T/C (compound 0.001 µM) | viability, T/C (compound 0.00316 µM) | viability, T/C (compound 0.01 µM) | viability, T/C (compound 0.0316 µM) | viability, T/C (compound 0.1 µM) | IC50 (curve of compound) | viability, T/C (compound 0.316 µM) | viability, T/C (compound 1 µM) | viability, T/C (compound 0.00949 µM) | viability, T/C (compound 0.03 µM) | viability, T/C (compound 0.0949 µM) |
| --- | --- | --- | --- | --- | --- | --- | --- | --- | --- | --- | --- | --- | --- | --- | --- | --- | --- | --- |
| CC(C)NCC(C(=O)N1CCN(c2ncnc3c2C(C)CC3O)CC1)c1ccc(Cl)cc1 (stereo unspecified) | 103% [middle of 10 runs] | 101% [middle of 10 runs] | 104% [middle of 10 runs] | 99.7% [middle of 10 runs] | 17.2 | > 30 |  |  |  |  |  |  |  |  |  |  |  |  |
| COC1CC2CCC(C)C(O)(O2)C(=O)C(=O)N2CCCCC2C(=O)OC(C(C)CC2CCC(OCCO)C(OC)C2)CC(=O)C(C)C=C(C)C(O)C(OC)C(=O)C(C)CC(C)C=CC=CC=C1C (stereo unspecified) |  |  |  |  |  |  | 103% and 106% | 99.4% and 100% | 104% and 96.8% | 105% and 107% | 101% and 107% | 99.1% and 95.3% | > 0.1 µM |  |  |  |  |  |
| COc1c(OCCCN2CCOCC2)ccc2c3n(c(=NC(=O)c4cnc(N)nc4)nc12)CCN3 |  |  |  |  |  |  |  |  | 101% and 102% | 95.3% and 72% | 93% and 53.6% | 80.6% and 42.5% |  | 76.2% and 50.6% | 73.9% and 52.4% |  |  |  |
| Cn1cnc2c(F)c(Nc3ccc(Br)cc3Cl)c(C(=O)NOCCO)cc21 | 83.4% and 78.8% | 67.7% and 64.5% | 49.1% and 44.4% |  |  |  |  |  |  |  |  |  | 2.95 µM and 2.24 µM |  |  | 103% and 98.9% | 93.8% and 91.6% | 89% and 82% |
